Measurements from patent US10610590B2, “Electrochemical plasma activated aqueous chemotherapeutics” (Symbios Technologies, Inc., priority 2016, dated 2020).

Tested on: MIA PaCa-2 cells
Experiment: Alamar blue cell proliferation assay, pancreatic cancer cells
Type: cell-based, human
Conditions: carboplatin 0.2, 1, 2.5, 5 and 10 μg/mL, 72 h incubation
Source text: All lines used were adherent human cell lines. • (i) Pancreatic cancer cell line: MIA PaCa-2 • Source: Available from ATCC (ATCC® CRL1420™) • Complete growth medium: Eagle's Minimum Essential Medium containing 5% fetal bovine serum and 5% cosmic calf serum • (ii) Human umbilical vein endothelial cells: HUVEC • Source: Available from ATCC (ATCC® PCS-100-010™) or Lonza (single or pooled donor) • Complete growth medium: EGM-2 BulletKit (Lonza) • (iii) Human foreskin fibroblasts: HFF-1 • Source: Available from ATCC (ATCC® SCRC-1041™) • Complete growth medium: Dulbecco's Modified Eagle's Medium containing 15% fetal bovine serum • (iv) Immortalized pancreas duct epithelial-like cells: hTERT-HPNE • Source: Available from ATCC (ATCC® CRL4023™) • Complete growth medium: Specialty Dulbecco's Modified Eagle's Medium composition, protocol available from ATCC • (v) Primary pancreatic stellate cells: Panc stellate • Source: Available from Applied Biological Materials (T4215) • Complete growth medium: Prigrow I containing 10% fetal bovine serum.
Each cell line was adherent in a growth flask, incubated at 37° C. and 5% CO2; de-attached cell from growth flask using Trypsin-EDTA solution (0.25% Trypsin, 0.53 mM EDTA); and counted by Trypan blue staining standard protocol. […]
A standard cell proliferation assay was used, the Alamar blue assay, to assess quantification of viable cells. […]

N.N.O=C([O-])C1(C(=O)[O-])CCC1.[Pt+2] [carboplatin]
human pancreatic cancer cell proliferation (positive control): dose dependent cell growth inhibition
